ChEMBL document CHEMBL4130497, “Fragment-based approach to identify IDO1 inhibitor building blocks” (Eur J Med Chem, 2017)

Legend:
[1] = biological target: Indoleamine 2,3-dioxygenase 1 (Homo sapiens, UniProt P14902); assay: Binding affinity to NT647 dye labeled recombinant human IDO1 (1 to 403 residues) by microscale thermophoresis method
[2] = Dissociation constant, pKa of the compound; assay type: physicochemical
[3] = Lipophilicity, log P of the compound in n1-octanol and water by pH-metric assay; assay type: physicochemical; details: n-octanol/water
[4] = biological target: Indoleamine 2,3-dioxygenase 1 (Mus musculus) (UniProt P28776); assay: Inhibition of mouse IDO1 expressed in mouse P1.HTR cells assessed as reduction in kynurenine production from L-Trp incubated for 16 hrs by HPLC method; assay type: cell-based
Chain of Indoleamine 2,3-dioxygenase 1 (Mus musculus) (P28776 whole entry, looked up): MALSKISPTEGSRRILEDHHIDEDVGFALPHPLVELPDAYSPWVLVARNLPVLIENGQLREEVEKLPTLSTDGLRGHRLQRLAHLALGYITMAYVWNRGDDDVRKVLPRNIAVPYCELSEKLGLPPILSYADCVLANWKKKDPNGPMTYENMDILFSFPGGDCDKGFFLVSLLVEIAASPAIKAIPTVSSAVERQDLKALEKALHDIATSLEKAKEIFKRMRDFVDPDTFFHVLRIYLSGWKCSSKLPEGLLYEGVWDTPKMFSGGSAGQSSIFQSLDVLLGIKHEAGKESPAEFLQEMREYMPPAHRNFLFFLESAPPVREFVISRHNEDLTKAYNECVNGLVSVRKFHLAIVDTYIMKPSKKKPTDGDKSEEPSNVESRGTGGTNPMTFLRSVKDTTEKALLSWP

Chain of Indoleamine 2,3-dioxygenase 1 (P14902 whole entry, the tested form may be a part): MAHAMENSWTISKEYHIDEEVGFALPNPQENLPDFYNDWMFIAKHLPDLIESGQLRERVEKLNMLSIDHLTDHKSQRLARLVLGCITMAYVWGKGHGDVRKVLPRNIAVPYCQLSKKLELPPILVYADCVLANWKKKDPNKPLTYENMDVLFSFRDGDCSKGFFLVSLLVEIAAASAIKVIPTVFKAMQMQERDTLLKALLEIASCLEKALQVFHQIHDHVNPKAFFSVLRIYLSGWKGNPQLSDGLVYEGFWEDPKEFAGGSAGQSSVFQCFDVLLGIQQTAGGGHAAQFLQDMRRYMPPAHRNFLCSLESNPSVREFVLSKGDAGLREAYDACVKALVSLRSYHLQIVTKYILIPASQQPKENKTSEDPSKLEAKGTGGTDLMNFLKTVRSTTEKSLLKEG

Question: Which Kd [1] does the source give for `NCC(O)c1cccc2ccccc12` (stereo not given) here?
Answer: > 1000 µM

Question: With `O=S(=O)(NCc1cccnc1)c1ccc2ccccc2c1` as the compound, how does the pKa [2] read?
Answer: 4.8 to 10.3

Question: What about the logP [3] of the same compound?
Answer: 2.5

Question: What about the Kd [1] of the same compound?
Answer: 53.7 µM

Question: For `Cc1ccc(NCCNC(=O)c2c[nH]c3ccccc23)nn1`, which Kd [1] is on record?
Answer: > 1000 µM

Question: With `COc1ccc(-c2cnc(CN)[nH]2)cc1` as the compound, how does the Kd [1] read?
Answer: > 500 µM

Question: Which Kd [1] does the source give for `Cc1c(C)n(CC(O)CN2CCNCC2)c2ccccc12` (stereo not given) here?
Answer: 96.7 µM

Question: With `COC(=O)C(N)c1ccc2ccccc2c1` (stereo not given) as the compound, how does the Kd [1] read?
Answer: 169 µM

Question: Which Kd [1] does the source give for `NC(=O)c1csc(NC(=O)Cc2c[nH]c3ccccc23)c1` here?
Answer: 61.5 µM

Question: Which Kd [1] does the source give for `OC(c1nc2ccccc2[nH]1)C(O)c1nc2ccccc2[nH]1` (stereo not given) here?
Answer: 774 µM

Question: Which Kd [1] does the source give for `NC(S)=NNC(=O)Nc1ccc(Cl)c(Cl)c1` here?
Answer: 941 µM

Question: With `COc1ccccc1OCC(O)CNC1CCCC1` (stereo not given) as the compound, how does the Kd [1] read?
Answer: > 1000 µM

Question: For `Cn1cc(C(O)CN)c2ccccc21` (stereo not given), which Kd [1] is on record?
Answer: 97 µM

Question: What does the source list for `N=C(N)Sc1c[nH]c2ccccc12`?
Answer: pKa [2]: 9.5; fold change (FC) [4]: < 0.6; logP [3]: 1.8; Kd [1]: 17.8 µM

Question: With `NCC(O)c1cc(Cl)cc(Cl)c1` (stereo not given) as the compound, how does the Kd [1] read?
Answer: > 1000 µM

Question: Which Kd [1] does the source give for `NCC(O)COCC1COc2ccccc2O1` (stereo not given) here?
Answer: > 1000 µM

Question: For `NC(=O)CN1CCN(c2cccc3ccccc23)C(=O)C1=O`, which Kd [1] is on record?
Answer: > 1000 µM

Question: Which Kd [1] does the source give for `NCCc1nc2ccc(F)cc2[nH]1` here?
Answer: 548 µM

Question: For `O=C1CC(NC(=O)Cn2ccc3ccccc32)CN1` (stereo not given), which Kd [1] is on record?
Answer: 237 µM

Question: For `O=C(NCCn1ncccc1=O)c1ccc2ccccc2c1`, which Kd [1] is on record?
Answer: 240 µM

Question: For `OC(CC1c2ccccc2-c2cncn21)C1CCCCC1` (stereo not given), which pKa [2] is on record?
Answer: 6.7

Question: With `O=C(/C=C/N1CCOCC1)c1coc2ccccc12` as the compound, how does the Kd [1] read?
Answer: 147 µM

Question: For `Cc1ccc(NCCNC(=O)c2cccc(Cl)c2)nn1`, which Kd [1] is on record?
Answer: > 1000 µM

Question: Which Kd [1] does the source give for `COc1ccccc1OCC(O)Cn1cnc2ccccc21` (stereo not given) here?
Answer: 86.8 µM

Question: Which results are given for `CCc1cccc2sc(NCCN3CCOCC3)nc12`?
Answer: pKa [2]: 3.1 to 6.2; logP [3]: 2.3; Kd [1]: 33.5 µM
